Results as given in patent US8648118B2, “Bicyclic ring system substituted amide functionalised phenols as medicaments” (Boehringer Ingelheim International GmbH, priority 2010, dated 2014).

Molecular target: T1, BAF/3 cells expressing human CXCR2 (Homo sapiens, UniProt P25025)
T1 construct: expressed in transfected cells; host or cells: BAF/3 cells
T1 sequence (P25025 1-360): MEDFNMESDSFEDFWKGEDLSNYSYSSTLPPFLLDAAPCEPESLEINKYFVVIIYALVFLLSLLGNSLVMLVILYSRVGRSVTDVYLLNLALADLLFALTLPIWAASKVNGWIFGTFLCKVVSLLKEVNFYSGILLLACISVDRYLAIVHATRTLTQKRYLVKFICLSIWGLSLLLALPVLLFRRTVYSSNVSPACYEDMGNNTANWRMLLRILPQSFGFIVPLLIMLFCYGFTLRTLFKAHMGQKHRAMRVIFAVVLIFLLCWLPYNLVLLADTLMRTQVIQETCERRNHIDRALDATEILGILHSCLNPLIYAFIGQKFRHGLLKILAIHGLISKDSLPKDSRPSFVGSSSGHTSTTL
Assay: Chemotaxis assay 1, transfected cell line: inhibition of CXCL1 induced chemotaxis
Assay type: cell-based
Conditions: inhibition of CXCL1 (3 nM) induced chemotaxis of BAF/3 cells expressing human CXCR2; 4 hours incubation
Experimental: Chemotaxis assay 1, transfected cell line: This assay measures the inhibition of CXCL1 induced chemotaxis of BAF/3 cells expressing human CXCR2. For each assay point, 100 μL of a 3×10^6/mL cell suspension are incubated with 1 μL of test compound diluted in DMSO. The bottom wells of a chemotaxis plate (5 μm pore size, Neuroprobe) is filled with 305 μL of chemotaxis buffer (RPMI 1640 medium (phenol red free), containing 2% fetal calf serum) and 3 nM CXCL1. The 5 μm pore membrane is applied onto the chemotaxis plate and 80 μL of the cell suspension is cautiously pipetted onto the membrane. The lid is put on the chemotaxis plate and the plate is incubated for 4 hours in an incubator (37° C., 5% CO2). For quantification of migrated cells, the cell suspension and the lid are removed and 100 μL from the bottom chamber are transferred to an Opti plate 96 (Perkin Elmer). 100 μL of substrate solution (provided by Cell Titer Glo kit, Promega) are added. This method uses the measurement of ATP present in metabolically active cells. After 10 min incubation at room temperature the plate is measured at Luminoscan for quantification of ATP-dependent generation of oxyluciferin. IC50s of the tested compound are calculated by non-linear regression and using a sigmoidal dose-response curve as fitting algorithm (provided by GraphPadPrism). Determination of a bottom value is performed by quantification of migration of buffer treated cells, migrating towards buffer only. Determination of a top value is performed by quantification of migration of buffer treated cells, migrating towards CXCL1.

IC50	SMILES
597 nM	O=C(Nc1ccccc1Br)Nc1cccc(C(=O)N2CCC3(CCNC3=O)CC2)c1O [Example 1]
634 nM	O=C(Nc1cccc(C(=O)N2CCC3(CCNC3=O)CC2)c1O)Nc1cccc(Cl)c1Cl [Example 3]
34 nM	O=C(Nc1cccc(C(=O)N2CCC3(CCNC3=O)CC2)c1O)Nc1cccc(F)c1Cl [Example 4]
377 nM	O=C(Nc1ccccc1Br)Nc1cccc(C(=O)N2CCN3CCCC3C2)c1O (centres unmarked) [Example 5]
2570 nM	O=C(Nc1cccc(C(=O)N2CCN3CCCC3C2)c1O)Nc1cccc(Cl)c1Cl (centres unmarked) [Example 7]
651 nM	O=C(Nc1ccccc1Br)Nc1cccc(C(=O)N2CCN3CCC[C@@H]3C2)c1O [Example 8]
22 nM	O=C(Nc1cccc(C(=O)N2CCN3CCC[C@@H]3C2)c1O)Nc1cccc(F)c1Cl [Example 9]
260 nM	O=C(Nc1ccccc1Br)Nc1cccc(C(=O)N2CCN3CCC[C@H]3C2)c1O [Example 10]
41 nM	O=C(Nc1cccc(C(=O)N2CCN3CCC[C@H]3C2)c1O)Nc1cccc(F)c1Cl [Example 11]
119 nM	O=C(Nc1ccccc1Br)Nc1cccc(C(=O)N2CCN3C(=O)CCC3C2)c1O (centres unmarked) [Example 12]
47 nM	O=C(Nc1cccc(C(=O)N2CCN3C(=O)CCC3C2)c1O)Nc1cccc(Cl)c1Cl (centres unmarked) [Example 13]
11 nM	O=C(Nc1cccc(C(=O)N2CCN3C(=O)CCC3C2)c1O)Nc1cccc(F)c1Cl (centres unmarked) [Example 14]
86 nM	O=C(Nc1cccc(C(=O)N2CC(=O)N3CCCC3C2)c1O)Nc1cccc(F)c1Cl (centres unmarked) [Example 15]
85 nM	O=C(Nc1ccccc1Br)Nc1cccc(C(=O)N2CC(=O)N3CCCC3C2)c1O (centres unmarked) [Example 16]
1.2 nM	O=C(Nc1cccc(C(=O)N2CCN3CCOCC3C2)c1O)Nc1cccc(F)c1Cl (centres unmarked) [Example 17]
11 nM	O=C(Nc1cccc(C(=O)N2CCN3C(=O)COC[C@H]3C2)c1O)Nc1cccc(F)c1Cl [Example 18]
50 nM	O=C(Nc1cccc(C(=O)N2CCN3C(=O)COC[C@@H]3C2)c1O)Nc1cccc(F)c1Cl [Example 19]
16 nM	CCC(Nc1c(Nc2cccc(C(=O)N3CCN4CCCC4C3)c2O)c(=O)c1=O)c1ccccc1 (centres unmarked) [Example 20]
8 nM	O=C(c1cccc(Nc2c(Nc3cccc(F)c3Cl)c(=O)c2=O)c1O)N1CCN2CCCC2C1 (centres unmarked) [Example 21]
1.5 nM	O=C(c1cccc(Nc2c(Nc3ccccc3Br)c(=O)c2=O)c1O)N1CCN2CCCC2C1 (centres unmarked) [Example 22]
2740 nM	CC[C@H](Nc1c(Nc2cccc(C(=O)N3CCN4CCC[C@@H]4C3)c2O)c(=O)c1=O)c1ccccc1 [Example 23]
3.2 nM	CC[C@@H](Nc1c(Nc2cccc(C(=O)N3CCN4CCC[C@@H]4C3)c2O)c(=O)c1=O)c1ccccc1 [Example 24]
1350 nM	CC[C@H](Nc1c(Nc2cccc(C(=O)N3CCN4CCC[C@H]4C3)c2O)c(=O)c1=O)c1ccccc1 [Example 25]
3.9 nM	CC[C@@H](Nc1c(Nc2cccc(C(=O)N3CCN4CCC[C@H]4C3)c2O)c(=O)c1=O)c1ccccc1 [Example 26]
0.1 nM	CC[C@@H](Nc1c(Nc2cccc(C(=O)N3CCN4CCC[C@H]4C3)c2O)c(=O)c1=O)c1ccc(C)o1 [Example 27]
40 nM	CC[C@@H](Nc1c(Nc2cccc(C(=O)N3CCN4CCC[C@H]4C3)c2O)c(=O)c1=O)c1ccc(C(F)(F)F)o1 [Example 28]
4.1 nM	CCC(Nc1c(Nc2cccc(C(=O)N3CCC4(CCNC4=O)CC3)c2O)c(=O)c1=O)c1ccccc1 (centres unmarked) [Example 29]

IC50	SMILES
267 nM	CC[C@@H](Nc1c(Nc2cccc(C(=O)N3CCN4C(=O)CCC4C3)c2O)c(=O)c1=O)c1ccccc1 (some centres unmarked) [Example 30]
662 nM	CC[C@@H](Nc1c(Nc2cccc(C(=O)N3CC(=O)N4CCCC4C3)c2O)c(=O)c1=O)c1ccccc1 (some centres unmarked) [Example 31]
401 nM	CC[C@@H](Nc1c(Nc2cccc(C(=O)N3CCS(=O)(=O)C4(CCNC4=O)C3)c2O)c(=O)c1=O)c1ccccc1 (some centres unmarked) [Example 32]
126 nM	CC[C@@H](Nc1c(Nc2cccc(C(=O)N3CCC4(CCNC4=O)CC3)c2O)c(=O)c1=O)c1ccccc1 [Example 34]
16 nM	CC[C@@H](Nc1c(Nc2cccc(C(=O)N3CCN4CCOCC4C3)c2O)c(=O)c1=O)c1ccccc1 (some centres unmarked) [Example 35]
25 nM	CC[C@@H](Nc1c(Nc2cccc(C(=O)N3CC4(COC4)C3)c2O)c(=O)c1=O)c1ccccc1 [Example 36]
26 nM	CC[C@@H](Nc1c(Nc2cccc(C(=O)N3CCC4(CCCC4)CC3)c2O)c(=O)c1=O)c1ccccc1 [Example 37]
3.4 nM	CC[C@@H](Nc1c(Nc2cccc(C(=O)N3CCN4C(=O)COC[C@@H]4C3)c2O)c(=O)c1=O)c1ccccc1 [Example 38]
23 nM	CC[C@@H](Nc1c(Nc2cccc(C(=O)N3CC4OC(C)(C)C[C@@H]4[C@H]3C(=O)OC)c2O)c(=O)c1=O)c1ccccc1 (some centres unmarked) [Example 39]
34 nM	CC[C@@H](Nc1c(Nc2cccc(C(=O)N3CC4OC(C)(C)C[C@@H]4[C@H]3CO)c2O)c(=O)c1=O)c1ccccc1 (some centres unmarked) [Example 40]
66 nM	CC[C@@H](Nc1c(Nc2cccc(C(=O)N3CCC4C(=O)NCCC43)c2O)c(=O)c1=O)c1ccccc1 (some centres unmarked) [Example 41]
45 nM	CC[C@@H](Nc1c(Nc2cccc(C(=O)N3CCO[C@@H]4CNC[C@H]43)c2O)c(=O)c1=O)c1ccccc1 [Example 42]
11 nM	CC[C@@H](Nc1c(Nc2cccc(C(=O)N3CCO[C@@H]4CN(C)C[C@H]43)c2O)c(=O)c1=O)c1ccccc1 [Example 43]
2130 nM	CC[C@@H](Nc1c(Nc2cccc(C(=O)N3CCC4(CC3)COCC(=O)N4)c2O)c(=O)c1=O)c1ccccc1 [Example 44]
3.3 nM	CC[C@@H](Nc1c(Nc2cccc(C(=O)N3CC4OCCN(C)C4C3)c2O)c(=O)c1=O)c1ccccc1 (some centres unmarked) [Example 45]
51 nM	CC[C@@H](Nc1c(Nc2cccc(C(=O)N3CCN4CCOC[C@H]4C3)c2O)c(=O)c1=O)c1ccccc1 [Example 46]
818 nM	CC[C@@H](Nc1c(Nc2cccc(C(=O)N3CCN4C(CCS4(=O)=O)C3)c2O)c(=O)c1=O)c1ccccc1 (some centres unmarked) [Example 47]
859 nM	CC[C@@H](Nc1c(Nc2cccc(C(=O)N3CCN4C(=O)CCC4C3)c2O)c(=O)c1=O)c1ccc(C(F)(F)F)o1 (some centres unmarked) [Example 48]
926 nM	CC[C@@H](Nc1c(Nc2cccc(C(=O)N3CCN4CCNC(=O)C4C3)c2O)c(=O)c1=O)c1ccccc1 (some centres unmarked) [Example 49]
1850 nM	CC[C@@H](Nc1c(Nc2cccc(C(=O)N3CCC4(CCNC4=O)CC3)c2O)c(=O)c1=O)c1ccc(C)o1 [Example 50]
247 nM	O=C(c1cccc(Nc2c(Nc3cccc(F)c3Cl)c(=O)c2=O)c1O)N1CCN2CCCCC2C1 (centres unmarked) [Example 51]
6.2 nM	O=C(c1cccc(Nc2c(Nc3cccc(F)c3Cl)c(=O)c2=O)c1O)N1CCC2(CCNC2=O)CC1 [Example 52]
360 nM	O=C(c1cccc(Nc2c(Nc3cccc(F)c3Cl)c(=O)c2=O)c1O)N1CC2(COC2)C1 [Example 53]
67 nM	O=C(c1cccc(Nc2c(Nc3cccc(F)c3Cl)c(=O)c2=O)c1O)N1CCN2CCOCC2C1 (centres unmarked) [Example 54]
617 nM	O=C1NCCC2C1CCN2C(=O)c1cccc(Nc2c(Nc3cccc(F)c3Cl)c(=O)c2=O)c1O (centres unmarked) [Example 55]
865 nM	O=C(c1cccc(Nc2c(Nc3cccc(F)c3Cl)c(=O)c2=O)c1O)N1CC(=O)N2CCCC2C1 (centres unmarked) [Example 56]
